Results taken from US6075060A, “Trans olefinic diols with surfactant properties” (Air Products and Chemicals, Inc., priority 1998, dated 2000).
Values after ≈ are worked out from the molar mass of the structure shown.

Columns and labels:
[1] = Equilibrium surface tension by maximum-bubble-pressure method; format: physicochemical; settings: for Equilibrium Surface Tension: 0.1 wt %, 23° C., 1 bubble/second, Table 2; for EST, trans olefin: 0.05 wt. %, Table 4; for EST of 0.1 wt % solution: cis and trans isomers, Table 7; for EST at Solubility Limit: trans isomers, Table 8
Method: The equilibrium surface tension is measured using the maximum-bubble-pressure method at 23° C. and 1 bubble/second. This method is described in Langmuir, Vol. 2 (1986), pp. 428-432. When measured at the solubility limit of the surfactant, an equilibrium surface tension of 40 dynes/cm or less is desired; preferably 35 dynes/cm or less.
The equilibrium surface tension was measured using the maximum-bubble-pressure method at 23° C. and 1 bubble/second at 0.1 wt %. The results, presented in Table 2, indicate that olefinic diols with 10 or less carbons are poor surfactants and the cis isomer has slightly better equilibrium surface tension than the trans isomer.
The equilibrium surface tension of the compounds of Examples 3, 4 and 5 was measured 0.05 wt. %.

[2] = Water solubility (solubility limit); format: physicochemical; settings: for solubility: water

Compound	EST of 0.1 wt % solution [1] [dynes/cm]	solubility ([2]; cis and trans isomers, Table 7) [µg/mL]	further results
CCC(C)(O)/C=C\C(C)(O)CC (stereo not drawn) [Example 2 cis]			Equilibrium Surface Tension [1]: 51 dynes/cm
CCC(C)(O)/C=C/C(C)(O)CC (stereo not drawn) [Example 2 trans]			Equilibrium Surface Tension [1]: 59 dynes/cm
CCCCCCC(C)(O)/C=C/C(C)(O)CCCCCC (centres unmarked) [Example 3]			EST, trans olefin [1]: 67 DYNES/CM
CC(O)(/C=C/C(C)(O)c1ccccc1)c1ccccc1 (centres unmarked) [Example 4]			EST, trans olefin [1]: 67 DYNES/CM
CCCCC(O)(/C=C/C(O)(CCCC)CCCC)CCCC [Example 5]			EST, trans olefin [1]: 69 DYNES/CM
CCC(O)(/C=C\C(O)(CC)CC)CC [Example 6 cis, 3,6-diethyl-4-octene-3,6-diol]	54	100 (≈ 499 µM)	
CCC(O)(/C=C/C(O)(CC)CC)CC [Example 6 trans, 3,6-diethyl-4-octene-3,6-diol]	50	5000 (≈ 25000 µM)	
CCCCC(C)(O)/C=C/C(C)(O)CCCC (centres unmarked) [Example 9, 5,8-dimethyl-6-dodecene-5,8-diol]			EST at Solubility Limit [1]: 33 dynes/cm; solubility ([2]; trans isomers, Table 8): 1000 µg/mL (≈ 4380 µM)

The next lines start with results.

EST of 0.1 wt % solution [1] [dynes/cm]	solubility ([2]; cis and trans isomers, Table 7) [µg/mL]	Compound	further results
58	< 100	CC(C)CC(C)(O)/C=C\C(C)(O)CC(C)C (stereo not drawn) [Example 7 cis, 2,4,7,9-tetramethyl-5-decene-4,7-diol]	
34	2000 (≈ 8760 µM)	CC(C)CC(C)(O)/C=C/C(C)(O)CC(C)C (stereo not drawn) [Example 7 trans, 2,4,7,9-tetramethyl-5-decene-4,7-diol]	EST at Solubility Limit [1]: 29 dynes/cm; Solubility Limit ([2]; trans isomers, Table 8): 0.2 wt % in water
68	< 100	CC(C)CCC(C)(O)/C=C\C(C)(O)CCC(C)C (stereo not drawn) [Example 8 cis, 2,5,8,11-tetramethyl-6-dodecene-5,8-diol]	
33	300 (≈ 1170 µM)	CC(C)CCC(C)(O)/C=C/C(C)(O)CCC(C)C (stereo not drawn) [Example 8 trans, 2,5,8,11-tetramethyl-6-dodecene-5,8-diol]	EST at Solubility Limit [1]: 33 dynes/cm; Solubility Limit ([2]; trans isomers, Table 8): 0.03 wt % in water
